What was measured:
[1] = target: T1, 11-beta-hydroxysteroid dehydrogenase 1 (Homo sapiens, UniProt P28845); test: Inhibition of human 11beta HSD1 expressed in HEK293 cells assessed as assessed as inhibition of [1,2-(n)3H]cortisone to [3H]-cortisol after 60 mins by scintillation proximity assay; format: cell-based
Target sequence in this assay (P28845 whole entry): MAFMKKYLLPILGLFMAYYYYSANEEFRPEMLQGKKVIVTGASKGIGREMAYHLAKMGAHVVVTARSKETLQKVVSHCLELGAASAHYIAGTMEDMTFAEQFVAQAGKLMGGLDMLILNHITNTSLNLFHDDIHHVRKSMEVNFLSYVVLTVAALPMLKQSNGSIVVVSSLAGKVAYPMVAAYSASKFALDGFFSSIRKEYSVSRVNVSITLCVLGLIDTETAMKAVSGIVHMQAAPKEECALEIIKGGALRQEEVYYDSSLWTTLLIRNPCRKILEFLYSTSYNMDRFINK

CYP3A4 = CYP3A4 (Homo sapiens, UniProt P08684); test: Inhibition of CYP3A4 in human liver microsomes using NADPH at 10 uM by LC-MS/MS analysis relative to control; format: ADME, Microsome
Cytochrome P450 2D6 = Cytochrome P450 2D6 (Homo sapiens, UniProt P10635); test: Inhibition of CYP2D6 at 10 uM; format: ADME
[2] = Protein binding in plasma; format: ADME, cell-free; conditions: read-out: PPB
Homo sapiens = species on record: Homo sapiens; test: Selectivity ratio of IC50 for human 11beta HSD2 to IC50 for human 11beta HSD1
[3] = target: T1, 11-beta-hydroxysteroid dehydrogenase 1; test: Inhibition of human 11beta HSD1 expressed in HEK293 cells assessed as assessed as inhibition of [1,2-(n)3H]cortisone to [3H]-cortisol at 100 uM after 60 mins by scintillation proximity assay
Target sequence in this assay (P28845 whole entry, looked up): as the sequence (P28845 whole entry) above

[4] = target: T2, 11-beta-hydroxysteroid dehydrogenase type 2 (Homo sapiens, UniProt P80365); test: Inhibition of human 11beta HSD2
T2 sequence (P80365 whole entry): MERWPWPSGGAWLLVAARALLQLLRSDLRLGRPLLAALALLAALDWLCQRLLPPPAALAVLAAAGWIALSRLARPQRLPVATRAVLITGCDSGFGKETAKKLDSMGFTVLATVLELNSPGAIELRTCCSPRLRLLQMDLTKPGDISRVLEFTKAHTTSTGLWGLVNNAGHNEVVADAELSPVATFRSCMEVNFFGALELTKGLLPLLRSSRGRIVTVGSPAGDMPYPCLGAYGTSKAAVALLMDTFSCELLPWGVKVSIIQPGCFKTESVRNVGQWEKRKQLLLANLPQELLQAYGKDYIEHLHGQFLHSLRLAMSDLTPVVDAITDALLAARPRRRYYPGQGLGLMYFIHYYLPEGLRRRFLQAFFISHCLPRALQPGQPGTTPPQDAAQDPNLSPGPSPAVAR

CYP3A4, sequence (P08684 whole entry): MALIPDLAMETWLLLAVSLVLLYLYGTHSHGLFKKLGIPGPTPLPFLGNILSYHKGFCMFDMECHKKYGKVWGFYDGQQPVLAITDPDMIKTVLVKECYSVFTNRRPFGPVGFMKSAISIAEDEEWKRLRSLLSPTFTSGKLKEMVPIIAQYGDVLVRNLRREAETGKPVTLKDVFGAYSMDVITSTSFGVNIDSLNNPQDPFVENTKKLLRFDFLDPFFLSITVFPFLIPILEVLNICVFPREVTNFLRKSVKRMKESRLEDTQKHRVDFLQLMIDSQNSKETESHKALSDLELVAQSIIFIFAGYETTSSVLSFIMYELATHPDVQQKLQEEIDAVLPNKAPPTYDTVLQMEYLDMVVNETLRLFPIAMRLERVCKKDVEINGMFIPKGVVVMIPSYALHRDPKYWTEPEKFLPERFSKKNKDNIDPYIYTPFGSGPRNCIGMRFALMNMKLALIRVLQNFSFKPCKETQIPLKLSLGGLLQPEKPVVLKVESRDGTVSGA
Cytochrome P450 2D6, sequence (P10635 whole entry): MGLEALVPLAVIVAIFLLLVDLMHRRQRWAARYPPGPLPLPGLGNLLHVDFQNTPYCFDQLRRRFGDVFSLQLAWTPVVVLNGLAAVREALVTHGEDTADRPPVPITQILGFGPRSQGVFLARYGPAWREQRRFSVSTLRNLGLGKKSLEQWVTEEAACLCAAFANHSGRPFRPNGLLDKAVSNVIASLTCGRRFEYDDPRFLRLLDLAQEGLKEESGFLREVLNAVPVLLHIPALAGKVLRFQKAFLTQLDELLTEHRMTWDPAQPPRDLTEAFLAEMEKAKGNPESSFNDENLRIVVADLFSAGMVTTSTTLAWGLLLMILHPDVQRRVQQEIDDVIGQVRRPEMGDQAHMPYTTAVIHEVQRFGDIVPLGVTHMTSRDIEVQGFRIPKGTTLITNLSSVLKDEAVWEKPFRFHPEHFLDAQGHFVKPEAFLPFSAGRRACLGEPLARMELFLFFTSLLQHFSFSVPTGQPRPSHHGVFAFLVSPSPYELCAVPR

| Structure (SMILES) | IC50 [1] [µM] | inhibition at 10 µM (CYP3A4) [%] | inhibition (INH) (Cytochrome P450 2D6) | fraction unbound [2] | Ratio IC50 (Homo sapiens) | inhibition [3] [%] | IC50 [4] [µM] |
| --- | --- | --- | --- | --- | --- | --- | --- |
| CCN(CC)C(=O)Cc1csc(NS(=O)(=O)c2cccc(Cl)c2C)n1 | 0.0284 |  |  |  |  |  |  |
| O=C(CSc1nnc(-c2ccccc2)c(-c2ccccc2)n1)N1CCc2ccccc21 | 0.0581 | 36 | Active | ≤ 0.05 | 200 |  | 8.9 |
| Fc1cccc(Cl)c1CSc1nnc(-c2ccco2)n1-c1ccc(OCc2ccccc2)cc1 |  | 73 | Not Active | ≤ 0.05 |  |  |  |
| O=S(=O)(c1ccc2ccccc2c1)N1CC=C(c2ccccc2)CC1 |  | 14 | Not Active | ≤ 0.05 |  |  |  |

Results, then the compound that gave them:

| IC50 [1] [µM] | inhibition at 10 µM (CYP3A4) [%] | inhibition (INH) (Cytochrome P450 2D6) | fraction unbound [2] | Ratio IC50 (Homo sapiens) | inhibition [3] [%] | IC50 [4] [µM] | Structure (SMILES) |
| --- | --- | --- | --- | --- | --- | --- | --- |
| 0.102 | 82 | Active | ≤ 0.1 |  |  |  | O=S(=O)(Nc1cccc(CCc2ccccn2)c1)c1cc(Cl)ccc1Cl |
| 0.0413 | 17 | Not Active | ≤ 0.05 | 2420 | < 50 |  | CN(Cc1ccccc1)S(=O)(=O)c1ccc(Oc2cccc(Cl)c2C#N)cc1 |
|  | 26 | Not Active | ≤ 0.05 |  |  |  | N#C/C(=C\c1ccc2c(c1)CCO2)S(=O)(=O)c1ccc(Cl)cc1Cl |
|  | 13 | Not Active | ≤ 0.1 |  |  |  | O=S(=O)(c1ccc2ccccc2c1)N1CCN(c2ncc(C(F)(F)F)cc2Cl)CC1 |
|  | 26 | Not Active | ≤ 0.1 |  |  |  | O=S(=O)(c1ccc2ccccc2c1)N1CCCN(Cc2c(F)cccc2Cl)CC1 |
